Where a chain is given by its changes, count along the chain named. “Also recorded” adds a separate entry of the source.
Key:
GLUT3 N315A = molecular target: T1, GLUT3 N315A (Homo sapiens, UniProt P11169, N315A/N43T); assay: MST binding assay, GLUT3 variant; details: read-out: Kd of SA47
T1 construct: His10 (N); made in house; host or cells: Sf9 insect cells (baculovirus)
T1 sequence (P11169 1-496 N43T/N315A): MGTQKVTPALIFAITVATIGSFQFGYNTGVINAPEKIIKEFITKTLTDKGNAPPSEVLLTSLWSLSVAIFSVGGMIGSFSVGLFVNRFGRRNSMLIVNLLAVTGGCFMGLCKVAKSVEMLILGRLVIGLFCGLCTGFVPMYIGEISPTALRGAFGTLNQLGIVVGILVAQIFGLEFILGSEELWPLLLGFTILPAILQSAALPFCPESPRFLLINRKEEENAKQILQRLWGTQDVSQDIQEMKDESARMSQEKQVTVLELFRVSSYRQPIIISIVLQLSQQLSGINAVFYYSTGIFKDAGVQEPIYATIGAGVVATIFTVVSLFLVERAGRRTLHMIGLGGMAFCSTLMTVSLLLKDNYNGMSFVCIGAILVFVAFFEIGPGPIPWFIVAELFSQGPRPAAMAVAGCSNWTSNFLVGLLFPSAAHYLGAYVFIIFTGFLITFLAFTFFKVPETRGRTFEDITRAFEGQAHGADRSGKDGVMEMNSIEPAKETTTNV
Description: (§1) All mutants were generated by standard PCR-based strategy.
(§2) Inhibitors with serial dilutions were mixed with indicated protein. […] MST analyses were conducted on a Monolith NT. […] The MST data was analyzed by Monolith NT.115.

GLUT3 E378A = molecular target: T2, GLUT3 E378A (Homo sapiens, UniProt P11169, E378A/N43T); assay: MST binding assay, GLUT3 variant; details: read-out: Kd of SA47
T2 construct: His10 (N); made in house; host or cells: Sf9 insect cells (baculovirus)
T2 sequence (P11169 1-496 N43T/E378A): T1 sequence (P11169 1-496 N43T/N315A) with A315N, E378A
Description: as §1, §2

GLUT3 S71A = molecular target: T3, GLUT3 S71A (Homo sapiens, UniProt P11169, N43T/S71A); assay: biochemical; type: binding
T3 construct: His10 (N); made in house; host or cells: Sf9 insect cells (baculovirus)
T3 sequence (P11169 whole entry N43T/S71A): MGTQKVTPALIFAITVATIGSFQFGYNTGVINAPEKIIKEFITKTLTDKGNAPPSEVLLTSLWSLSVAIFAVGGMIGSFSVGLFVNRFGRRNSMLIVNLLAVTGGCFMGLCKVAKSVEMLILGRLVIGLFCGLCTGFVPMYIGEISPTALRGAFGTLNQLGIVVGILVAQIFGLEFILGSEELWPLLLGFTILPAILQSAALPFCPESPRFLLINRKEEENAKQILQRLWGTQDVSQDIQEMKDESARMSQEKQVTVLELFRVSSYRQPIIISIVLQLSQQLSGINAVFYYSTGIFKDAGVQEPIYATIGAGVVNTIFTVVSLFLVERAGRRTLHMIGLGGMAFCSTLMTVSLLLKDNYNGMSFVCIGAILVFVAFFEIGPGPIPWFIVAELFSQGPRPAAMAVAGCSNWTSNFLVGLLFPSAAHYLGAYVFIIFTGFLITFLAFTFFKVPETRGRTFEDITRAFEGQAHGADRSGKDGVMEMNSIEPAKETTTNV
Description: as §1, §2

human GLUT3(N43T) = molecular target: T4, human GLUT3(N43T) (Homo sapiens, UniProt P11169, N43T); assay: Proteoliposome-based counterflow assay, inhibition of D-[2-3H]-glucose transport; type: biochemical
T4 construct: His10 (N); made in house; host or cells: Sf9 insect cells (baculovirus)
T4 sequence (P11169 1-496 N43T): T1 sequence (P11169 1-496 N43T/N315A) with A315N
Description: as §1
(§3) All counterflow assays were performed at 25 °C. […] Liposome without protein was used as negative control.
(§4) All experiments were repeated at least three times.

[1] = molecular target: T5, human glucose transporter GLUT1(N45T) (Homo sapiens, UniProt P11166, N45T); assay: as above; type: biochemical; details: GLUT1
T5 construct: made in house
T5 sequence (P11166 1-492 N45T): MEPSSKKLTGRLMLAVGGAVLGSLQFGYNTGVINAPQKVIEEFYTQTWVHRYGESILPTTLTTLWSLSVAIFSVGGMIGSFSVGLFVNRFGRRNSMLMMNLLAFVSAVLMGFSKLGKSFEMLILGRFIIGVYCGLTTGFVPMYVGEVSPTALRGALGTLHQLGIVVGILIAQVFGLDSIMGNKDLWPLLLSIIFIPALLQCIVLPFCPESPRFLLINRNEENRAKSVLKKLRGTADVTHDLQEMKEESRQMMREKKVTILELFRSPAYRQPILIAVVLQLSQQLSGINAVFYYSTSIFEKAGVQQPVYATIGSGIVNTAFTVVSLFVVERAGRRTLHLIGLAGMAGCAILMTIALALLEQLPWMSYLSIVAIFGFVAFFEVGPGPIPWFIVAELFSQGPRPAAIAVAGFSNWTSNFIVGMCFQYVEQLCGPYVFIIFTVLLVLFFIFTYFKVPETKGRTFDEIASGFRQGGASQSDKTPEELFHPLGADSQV
Description: as §1, §3, §4

Water solubility = type: physicochemical; details: can only be applied up to 160 μM
GLUT3 T28A = molecular target: T6, GLUT3 T28A (Homo sapiens, UniProt P11169, N43T/T28A); assay: Binding of SA47 to GLUT3 variant; details: single point mutation T28A
T6 construct: His10 (N); made in house; host or cells: Sf9 insect cells (baculovirus)
T6 sequence (P11169 1-496 T28A/N43T): T1 sequence (P11169 1-496 N43T/N315A) with T28A, A315N

COC(=O)CCNCc1ccccc1-n1ncc2c(N3CCN(c4cc(F)ccc4OC)CC3)ncnc21 [SA47]
Kd (GLUT3 N315A): 9500 ± 2200 nM
Kd (GLUT3 E378A): 1100 ± 100 nM
Kd (GLUT3 S71A): 1600 ± 400 nM
Affinity of SA47 with GLUT3 S71A (GLUT3 S71A; S71A versus WT): decreased the affinity; also recorded: reduced affinity
IC50 (human GLUT3(N43T)): 823 ± 138 nM
inhibition at 160 µM (human GLUT3(N43T); SA47 at 160 μM): ~85%
IC50 [1]: 331 ± 38.3 nM
inhibition at 160 µM ([1]; SA47 at 160 μM): ~85%
Water solubility (Water solubility): limited
SA47 binding to GLUT3 T28A (GLUT3 T28A): abolished the binding
